pIC50: −log10 of the molar value. Values after ≈ are worked out from the molar mass of the structure shown.
Columns and labels:
[1] = target: T1, N-acetyllactosaminide beta-1,3-N-acetylglucosaminyltransferase 2 (Homo sapiens, UniProt Q9NY97); test: Inhibition of B3GNT2 (unknown origin) using N-acetyl-lactosamine and UDP-GlcNAc as substrate incubated for 1.5 to 2 hrs by UDP-Glo based analysis; settings: for pIC50: read-out: IC50
T1 sequence (Q9NY97 whole entry): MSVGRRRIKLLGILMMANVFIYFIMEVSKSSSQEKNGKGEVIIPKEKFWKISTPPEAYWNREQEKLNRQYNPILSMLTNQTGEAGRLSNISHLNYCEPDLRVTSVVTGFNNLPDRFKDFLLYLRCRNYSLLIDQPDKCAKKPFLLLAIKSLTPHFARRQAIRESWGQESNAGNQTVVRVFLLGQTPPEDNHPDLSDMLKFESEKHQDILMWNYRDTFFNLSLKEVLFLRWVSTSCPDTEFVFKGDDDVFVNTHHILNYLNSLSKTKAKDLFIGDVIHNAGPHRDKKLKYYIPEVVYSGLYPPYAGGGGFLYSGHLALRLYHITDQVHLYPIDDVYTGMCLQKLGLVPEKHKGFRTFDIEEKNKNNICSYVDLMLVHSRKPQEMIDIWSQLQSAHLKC

[2] = target: N-acetyllactosaminide beta-1,3-N-acetylglucosaminyltransferase 4 (Homo sapiens, UniProt Q9C0J1); test: Inhibition of B3GNT4 (unknown origin) using Beta-lactose and UDP-GlcNAc as substrate incubated for 1.5 to 2 hrs by UDP-Glo based analysis
[3] = system: Jurkat; test: Antiproliferative activity against human Jurkat cells assessed as inhibition of cell growth incubated for 3 days by SYTOX blue staining based flow cytometry analysis; format: functional; settings: 72 h
[4] = Solubility of compound in FeSSIF incubated for 48 to 72 hrs by LC-MS analysis; format: physicochemical; settings: time 48-72 hrs
[5] = Solubility of compound in PBS incubated for 48 to 72 hrs by LC-MS analysis; format: physicochemical; settings: time 48-72 hrs
[6] = Solubility of compound in HCL incubated for 48 to 72 hrs by LC-MS analysis; format: physicochemical; settings: time 48-72 hrs
[7] = Microsomal stability in mouse liver microsome assessed as intrinsic clearance at 1 uM incubated for 20 mins in presence of NADPH by LC-MS/MS analysis; format: ADME; settings: liver microsomes, read-out: CLH
[8] = Microsomal stability in rat liver microsome assessed as intrinsic clearance at 1 uM incubated for 20 mins in presence of NADPH by LC-MS/MS analysis; format: ADME; settings: liver microsomes, read-out: CLH
[9] = Microsomal stability in human liver microsome assessed as intrinsic clearance at 1 uM incubated for 20 mins in presence of NADPH by LC-MS/MS analysis; format: ADME; settings: liver microsomes, read-out: CLH
[10] = Permeability of compound across apical to basolateral in MDCK-II cells incubated for 2 hrs by LC-MS/MS analysis; format: ADME, cell-based, Canis lupus familiaris; settings: dog, read-out: permeability
[11] = Clearance in mouse at 5 mg/kg, po; format: ADME, organism-based; settings: in vivo; for CL: po, 5 mg/kg
[12] = Volume of distribution at steady state in mouse at 5 mg/kg, po; format: ADME, organism-based; settings: in vivo
[13] = Half life in mouse at 5 mg/kg, po; format: ADME, organism-based; settings: in vivo; for t1/2: po, 5 mg/kg
[14] = Oral bioavailability in mouse at 5 mg/kg; format: ADME, organism-based; settings: in vivo

N-acetyllactosaminide beta-1,3-N-acetylglucosaminyltransferase 4, sequence (Q9C0J1 whole entry): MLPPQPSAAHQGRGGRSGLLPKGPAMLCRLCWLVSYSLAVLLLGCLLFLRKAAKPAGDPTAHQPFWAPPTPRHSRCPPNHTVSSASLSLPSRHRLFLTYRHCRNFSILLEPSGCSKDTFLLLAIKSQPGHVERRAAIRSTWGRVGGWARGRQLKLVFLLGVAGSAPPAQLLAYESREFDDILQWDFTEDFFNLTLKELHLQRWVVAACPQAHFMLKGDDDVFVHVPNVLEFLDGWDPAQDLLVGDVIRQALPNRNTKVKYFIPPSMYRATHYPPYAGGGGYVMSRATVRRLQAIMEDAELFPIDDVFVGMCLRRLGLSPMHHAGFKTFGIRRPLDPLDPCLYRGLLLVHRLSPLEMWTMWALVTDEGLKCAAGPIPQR

| Compound | pIC50 [1] | pIC50 [2] | pIC50 [3] | other results |
| --- | --- | --- | --- | --- |
| C[C@H](NC(=O)c1ccc2[nH]c(=O)n([C@H](C)C(C)(C)C)c2c1)c1ccc(Br)cn1 | 7.00 | 3.77 | 4.90 | – |
| Cc1ncc([C@]2(C)NC(c3ccc4[nH]c(=O)n([C@H](C)C(C)(C)C)c4c3)=NC2=O)cn1 | 7.62 | < 3.60 | 5.38 | – |
| C[C@@H](n1c(=O)[nH]c2ccc(C3=N[C@@](C)(c4ccc(Cl)cn4)NC3=O)cc21)C(C)(C)C | 7.16 | – | 5.09 | – |
| C[C@@H](n1c(=O)[nH]c2ccc(C3=NC(=O)[C@@](C)(c4ccc(Cl)cn4)N3)cc21)C(C)(C)C | 6.29 | – | – | – |
| C[C@@H](n1c(=O)[nH]c2ccc(C3=NC(=O)[C@](C)(c4ccc(C(F)(F)F)nc4)N3)cc21)C(C)(C)C | 8.10 | – | 5.64 | solubility [4]: 500 µM (≈ 230 µg/mL); solubility [5]: 66 µM (≈ 30.3 µg/mL); solubility [6]: 311 µM (≈ 143 µg/mL); microsomal CLint at 1 µM [7]: 14 µL/min/mg; microsomal CLint at 1 µM [8]: 14 µL/min/mg; microsomal CLint at 1 µM [9]: 34 µL/min/mg; Papp A→B at 2 h [10]: 15 ×10⁻⁶ cm/s; CL [11]: 5 mL/min/kg; Vdss [12]: 3.4 L/kg; t1/2 [13]: 1.5 h; bioavailability [14]: 66% |
| Cc1ccc([C@]2(C)NC(c3ccc4[nH]c(=O)n([C@H](C)C(C)(C)C)c4c3)=NC2=O)cn1 | 7.54 | – | 5.29 | – |
| C[C@@H](n1c(=O)[nH]c2ccc(C3=N[C@](c4ccc(Cl)nc4)(c4ccccn4)NC3=O)cc21)C(C)(C)C | 7.41 | – | 5.26 | – |
| C[C@H](NC(=O)c1ccc2[nH]c(=O)n([C@H](C)C(C)(C)C)c2c1)c1ccc(Cl)cc1 | 6.54 | < 3.60 | 4.33 | – |
| CC(C)NC(=O)c1ccc2[nH]c(=O)n([C@H](C)C(C)(C)C)c2c1 | 5.54 | < 3.60 | – | – |
| C[C@H](NC(=O)c1ccc2[nH]c(=O)n([C@H](C)C(C)(C)C)c2c1)c1ccc(C(F)(F)F)cn1 | 6.64 | < 3.60 | 4.18 | – |
| Cc1ncc([C@H](C)NC(=O)c2ccc3[nH]c(=O)n([C@H](C)C(C)(C)C)c3c2)cn1 | 6.92 | < 3.60 | 4.65 | – |
| C[C@@H](n1c(=O)[nH]c2ccc(C3=NC(C)(c4cnc(C(F)(F)F)nc4)C(=O)O3)cc21)C(C)(C)C (stereo partly specified) | – | – | – | IC50 [1]: Not Active |
| C[C@H](NC(=O)c1ccc2[nH]c(=O)n([C@H](C)C(C)(C)C)c2c1)c1cnc(Cl)nc1 | 7.12 | < 3.60 | 4.82 | – |
| C[C@@H](n1c(=O)[nH]c2ccc(C3=N[C@@](C)(c4cnc(C(F)(F)F)nc4)NC3=O)cc21)C(C)(C)C | 7.62 | – | 5.42 | – |
| C[C@@H](n1c(=O)[nH]c2ccc(C(=O)Nc3ccccc3)cc21)C(C)(C)C | 6.09 | < 3.60 | 4.41 | – |
| Cc1[nH]c2cc(NC(=O)c3ccc4[nH]c(=O)n([C@H](C)C(C)(C)C)c4c3)ccc2c1C | 7.22 | 3.78 | 5.44 | – |
| C[C@H](NC(=O)c1ccc2[nH]c(=O)n([C@H](C)C(C)(C)C)c2c1)c1ccc(Cl)cn1 | 6.64 | < 3.60 | 4.49 | – |
| C[C@@H](n1c(=O)[nH]c2ccc(C3=NC(c4ccc(Cl)cn4)(c4ccc(Cl)cn4)NC3=O)cc21)C(C)(C)C | 6.70 | – | 4.43 | – |
| C[C@@H](n1c(=O)[nH]c2ccc(C3=NC(=O)[C@](C)(c4ccc(C(F)(F)F)cn4)N3)cc21)C(C)(C)C | 7.52 | – | 4.62 | – |
| C[C@H](NC(=O)c1ccc2[nH]c(=O)n([C@H](C)C(C)(C)C)c2c1)c1cnc(C(F)(F)F)nc1 | 7.15 | < 3.60 | 4.76 | solubility [4]: 298 µM (≈ 130 µg/mL); solubility [5]: 155 µM (≈ 67.5 µg/mL); solubility [6]: 180 µM (≈ 78.4 µg/mL); microsomal CLint at 1 µM [7]: 61 µL/min/mg; microsomal CLint at 1 µM [8]: 42 µL/min/mg; microsomal CLint at 1 µM [9]: 14 µL/min/mg; Papp A→B at 2 h [10]: 21 ×10⁻⁶ cm/s; CL/F [11]: 13.3 mL/min/kg; Vdss [12]: 1.8 L/kg; half-life [13]: 1.9 h; bioavailability [14]: 28% |
| C[C@@H](n1c(=O)[nH]c2ccc(C3=NOC(C)(c4ccccc4)N3)cc21)C(C)(C)C (stereo partly specified) | 6.05 | – | 4.55 | – |
| C[C@@H](n1c(=O)[nH]c2ccc(C3=C[C@@](C)(c4cnc(C(F)(F)F)nc4)OC3=O)cc21)C(C)(C)C | 7.55 | – | 5.25 | – |
| C[C@@H](n1c(=O)[nH]c2ccc(C3=N[C@@](C)(c4ccc5nccn5c4)NC3=O)cc21)C(C)(C)C | 6.43 | – | 4.42 | – |

Continued, in another order:

| pIC50 [1] | pIC50 [2] | Compound | pIC50 [3] | other results |
| --- | --- | --- | --- | --- |
| 6.08 | < 3.60 | C[C@@H](n1c(=O)[nH]c2ccc(C(=O)NC(C)(C)c3ccc(Cl)cc3)cc21)C(C)(C)C | – | – |
| 8.05 | < 3.60 | C[C@@H](n1c(=O)[nH]c2ccc(C3=NC(=O)[C@](C)(c4cnc(C(F)(F)F)nc4)N3)cc21)C(C)(C)C | 5.96 | solubility [4]: 485 µM (≈ 223 µg/mL); solubility [5]: 154 µM (≈ 70.9 µg/mL); solubility [6]: 329 µM (≈ 151 µg/mL); microsomal CLint at 1 µM [7]: 15 µL/min/mg; microsomal CLint at 1 µM [8]: 15 µL/min/mg; microsomal CLint at 1 µM [9]: 14 µL/min/mg; Papp A→B at 2 h [10]: 17 ×10⁻⁶ cm/s; CL [11]: 5 mL/min/kg; Vdss [12]: 2.6 L/kg; t1/2 [13]: 1.4 h; bioavailability [14]: 54% |
| 7.03 | < 3.60 | Cc1ccc([C@H](C)NC(=O)c2ccc3[nH]c(=O)n([C@H](C)C(C)(C)C)c3c2)nc1 | 5.06 | – |
| 6.21 | < 3.60 | C[C@@H](n1c(=O)[nH]c2ccc(C(=O)NCc3ccc(Cl)cc3)cc21)C(C)(C)C | 4.17 | – |
| 7.28 | – | C[C@@H](n1c(=O)[nH]c2ccc(C3=N[C@]4(CCc5cc(Br)ccc54)NC3=O)cc21)C(C)(C)C | 5.19 | – |
| 5.57 | < 3.60 | C[C@@H](NC(=O)c1ccc2[nH]c(=O)n([C@H](C)C(C)(C)C)c2c1)c1ccc(Cl)cc1 | – | – |
| 6.22 | < 3.60 | C[C@@H](n1c(=O)[nH]c2ccc(C3=NC(=O)[C@](C)(c4ccccc4)N3)cc21)C(C)(C)C | < 4.07 | – |
| 7.02 | – | Cc1ccc([C@]2(C)NC(c3ccc4[nH]c(=O)n([C@H](C)C(C)(C)C)c4c3)=NC2=O)nc1 | 4.86 | – |
| 7.26 | – | C[C@@H](n1c(=O)[nH]c2ccc(C3=N[C@@](C)(c4cc5ccccc5[nH]4)NC3=O)cc21)C(C)(C)C | 5.00 | – |
| 7.09 | – | C[C@@H](n1c(=O)[nH]c2ccc(C3=NC(=O)[C@](C)(c4ncc(Cl)cn4)N3)cc21)C(C)(C)C | 4.79 | – |
| 4.58 | < 3.60 | C[C@@H](n1c(=O)[nH]c2ccc(C(=O)N3CCOCC3)cc21)C(C)(C)C | – | – |
| 6.00 | – | Cc1[nH]c2ccc([C@]3(C)N=C(c4ccc5[nH]c(=O)n([C@H](C)C(C)(C)C)c5c4)C(=O)N3)cc2c1C | – | – |
| 7.18 | – | C[C@@H](n1c(=O)[nH]c2ccc(C3=NC(=O)[C@](C)(c4ccc(Cl)cn4)N3)cc21)C(C)(C)C | 5.09 | – |
| 6.37 | < 3.60 | C[C@H](NC(=O)c1ccc2[nH]c(=O)n([C@H](C)C(C)(C)C)c2c1)c1ncc(Cl)cn1 | 4.53 | – |
| 5.04 | < 3.60 | CC(C)Cn1c(=O)[nH]c2ccc(C(=O)O)cc21 | – | – |
| 6.59 | 3.91 | C[C@@H](n1c(=O)[nH]c2ccc(C(=O)O)cc21)C(C)(C)C | < 4.07 | – |
| 7.59 | – | C[C@@H](n1c(=O)[nH]c2ccc(C3=N[C@@](c4cccnc4)(c4nnc[nH]4)NC3=O)cc21)C(C)(C)C | < 4.07 | – |
| 6.05 | < 3.60 | C[C@H](NC(=O)c1ccc2[nH]c(=O)n([C@H](C)C(C)(C)C)c2c1)c1cnc(Cl)cn1 | 4.63 | – |
| 7.89 | – | C[C@@H](n1c(=O)[nH]c2ccc(C3=N[C@@](Cc4ccccc4)(c4cnc(C(F)(F)F)nc4)NC3=O)cc21)C(C)(C)C | 5.40 | – |

Reference: ChEMBL document CHEMBL5344426, “Imidazolone as an Amide Bioisostere in the Development of β-1,3-N-Acetylglucosaminyltransferase 2 (B3GNT2) Inhibitors” (J Med Chem, 2023)
